In patent US9889183B2, “PKC activators and anticoagulant in regimen for treating stroke” (BLANCHETTE ROCKEFELLER NEUROSCIENCES INSTITUTE, priority 2010, dated 2018):

What was measured:
PKCδ = biological target: T1, PKCδ (Homo sapiens, UniProt Q05655); experiment: PKC isozyme specificity, PKCδ; type: biochemical; details: about 1-100 μM; data not shown
T1 construct: purchased Calbiochem
Description: (§1) Protein kinase C assay. Rat hippocampal cells were cultured and scraped in 0.2 ml homogenization buffer (20 mM Tris-HCl, pH 7.4, 50 mM NaF, 1 μg/ml leupeptin, and 0.1 mM PMSF) and homogenized by sonication a Marsonix microprobe sonicator (5 sec, 10 W). To measure PKC, 10 μl of cell homogenate or purified PKC isozyme (purchased from Calbiochem) was incubated for 15 min at 37° C. in the presence of 10 μM histones, 4.89 mM CaCl2, 1.2 μg/μl phosphatidyl-L-serine, 0.18 μg/μl 1,2-dioctanoyl-sn-glycerol, 10 mM MgCl2, 20 mM HEPES (pH 7.4), 0.8 mM EDTA, 4 mM EGTA, 4% glycerol, 8 μg/ml aprotinin, 8 μg/ml leupeptin, and 2 mM benzamidine. […][^γ32P]ATP was added and ^32P-phosphoprotein formation was measured by adsorption onto phosphocellulose as described previously. Nelson and Alkon, J. Neurochemistry (1995), vol. 65, pp. 2350-2357. For measurements of activation by BR-101 (DCP-LA) and similar compounds. PKC activity was measured in the absence of diacylglycerol and phosphatidylserine and PKC δ, ε, η, and μ were measured in the absence of added EGTA and CaCl2, as described by Kanno et al. (J. Lipid Res. 2006, vol. 47, pp. 1146-1150). […]
(§2) To determine their PKC isozyme specificity, fatty acid derivatives were preincubated with purified PKC for five minutes and the PKC activity was measured radiometrically.

PKCγ = biological target: T2, PKCγ (Homo sapiens, UniProt P05129); experiment: PKC isozyme specificity, PKCγ; type: biochemical; details: 50-100 μM; data not shown
T2 construct: purchased Calbiochem
Description: as §1, §2

PKC in primary neurons = experiment: PKC activity over time in rat hippocampal primary neurons; type: cell-based; details: only observed in primary neurons
Description: (§3) Cell culture. Rat hippocampal H19-7/IGF-IR cells (ATCC, Manassas, Va.) were plated onto poly-L-lysine coated plates and grown at 35° C. in DMEM/10% FCS for several days until about 50% coverage was obtained. The cells were then induced to differentiate into a neuronal phenotype by replacing the medium with 5 ml N2 medium containing 10 ng/ml basic fibroblast growth factor at 39° C. and grown in T-75 flasks at 37° C. Human SH-SY5Y neuroblastoma cells (ATCC) were cultured in 45% F12K/45% MEM/10% FCS. Mouse N2A neuroblastoma cells were cultured in DMEM/10% FCS without glutamine. Rat hippocampal neurons from 18-day-old embryonic Sprague Dawley rat brains were plated on 12- or 96-well plates coated with poly-D-lysine (Sigma-Aldrich, St. Louis, Mo.) in B-27 neurobasal medium containing 0.5 mM glutamine and 25 μM glutamate (Invitrogen, Carlsbad, Calif.) and cultured for three days in the medium without glutamate. The neuronal cells were grown under 5% CO2 in an incubator maintained at 37° C. for 14 days.
Protein kinase C assay. […] 0.5 Ci[^γ32P]ATP was added and ^32P-phosphoprotein formation was measured by adsorption onto phosphocellulose as described previously. […] PKC activity was measured in the absence of diacylglycerol and phosphatidylserine and PKC δ, ε, η, and μ were measured in the absence of added EGTA and CaCl2, as described by Kanno et al. (J. Lipid Res. 2006, vol. 47, pp. 1146-1150). […]

PKCε = biological target: T3, PKCε (Homo sapiens, UniProt Q02156); details: cited from earlier work
T3 construct: purchased Calbiochem
T3 sequence (Q02156 1-737): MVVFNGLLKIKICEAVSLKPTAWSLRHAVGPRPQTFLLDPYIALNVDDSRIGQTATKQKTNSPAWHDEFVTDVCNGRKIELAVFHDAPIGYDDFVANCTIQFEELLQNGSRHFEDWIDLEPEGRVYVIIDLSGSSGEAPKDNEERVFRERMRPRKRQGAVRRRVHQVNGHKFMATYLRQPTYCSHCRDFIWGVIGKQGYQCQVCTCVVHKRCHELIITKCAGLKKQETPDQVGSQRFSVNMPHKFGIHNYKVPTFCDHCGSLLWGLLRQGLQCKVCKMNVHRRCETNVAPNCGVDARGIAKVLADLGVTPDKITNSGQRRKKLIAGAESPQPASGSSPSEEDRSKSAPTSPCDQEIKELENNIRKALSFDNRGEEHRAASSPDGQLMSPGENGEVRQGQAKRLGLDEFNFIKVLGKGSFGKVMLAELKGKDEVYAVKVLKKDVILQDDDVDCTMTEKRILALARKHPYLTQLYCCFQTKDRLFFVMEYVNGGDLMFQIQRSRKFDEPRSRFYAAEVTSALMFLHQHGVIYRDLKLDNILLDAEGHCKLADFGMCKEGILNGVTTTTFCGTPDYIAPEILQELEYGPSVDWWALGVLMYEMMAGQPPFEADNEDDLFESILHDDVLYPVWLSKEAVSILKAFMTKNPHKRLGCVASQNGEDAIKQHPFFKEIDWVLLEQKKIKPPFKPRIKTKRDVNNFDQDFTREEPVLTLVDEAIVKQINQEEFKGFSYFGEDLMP

[1] = system: ischemic stroke (middle cerebral artery occlusion) in rats; experiment: Focal ischemia (MCAO) model of stroke; type: in vivo, rat
Description: A transient animal model of focal ischemia was used for these experiments. The middle cerebral artery (MCA) was surgically dissected and occluded in anesthetized rats by ligature, followed by reperfusion after a defined period (about 2 hours). Animal models transient ischemia via occlusion of the MCA (MCAO) are well-known and described in, e.g., Sicard and Fisher, Exp. & Transl. Stroke Med. (2009), vol. 1, pp. 1-7.

[2] = system: PKC in H19-7/IGF-IR cells; experiment: PKC activity over time in rat H19-7/IGF-IR hippocampal cells; type: cell-based
Description: as §3
Protein kinase C assay. Rat hippocampal cells were cultured and scraped in 0.2 ml homogenization buffer (20 mM Tris-HCl, pH 7.4, 50 mM NaF, 1 μg/ml leupeptin, and 0.1 mM PMSF) and homogenized by sonication a Marsonix microprobe sonicator (5 sec, 10 W). To measure PKC, 10 μl of cell homogenate or purified PKC isozyme (purchased from Calbiochem) was incubated for 15 min at 37° C. in the presence of 10 μM histones, 4.89 mM CaCl2, 1.2 μg/μl phosphatidyl-L-serine, 0.18 μg/μl 1,2-dioctanoyl-sn-glycerol, 10 mM MgCl2, 20 mM HEPES (pH 7.4), 0.8 mM EDTA, 4 mM EGTA, 4% glycerol, 8 μg/ml aprotinin, 8 μg/ml leupeptin, and 2 mM benzamidine. […][^γ32P]ATP was added and ^32P-phosphoprotein formation was measured by adsorption onto phosphocellulose as described previously. Nelson and Alkon, J. Neurochemistry (1995), vol. 65, pp. 2350-2357. For measurements of activation by BR-101 (DCP-LA) and similar compounds. PKC activity was measured in the absence of diacylglycerol and phosphatidylserine and PKC δ, ε, η, and μ were measured in the absence of added EGTA and CaCl2, as described by Kanno et al. (J. Lipid Res. 2006, vol. 47, pp. 1146-1150). Low concentrations of Ca^2+ are used because high Ca^2+ interacts with the PKC phosphatidylserine binding site and prevents activation. For measurements of bryostatin activation, 1,2-diacylglycerol was omitted unless otherwise stated.
PKC activators that bind to the diacylglycerol binding site, including bryostatin, gnidimacrin, and phorbol esters, produce a transient activation of PKC activity, followed by a prolonged downregulation. Nelson et al., Trends in Biochem. Sci. (2009), vol. 34, pp. 136-145. This was confirmed in cultured rat hippocampal cells. Incubation of rat H19-7/IGF-IR cells with (0.04 nM and 0.2 nM) bryostatin produced a 2-fold activation that lasted 30 min, followed by a 20% downregulation that returned to baseline by 24 hours (data not shown). […] This sustained activation was only observed in primary neurons.

[3] = system: global cerebral ischemia/hypoxia in rats; experiment: Global ischemia model, water maze (Examples 10-11); type: in vivo, rat
Description: Rats (male, Wistar, 200-225 g) were randomly divided into 6 groups (8 each) and housed for 1 week before experimentation. […] The global ischemia model used to induce vascular memory impairment was two-vessel occlusion combined with a short term systemic hypoxia. Ligation of the bilateral common carotid arteries was performed under anesthesia (pentobarbital, 60 mg/kg, i.p.). After a one-week recovery from the surgery, rats were exposed to 14-min hypoxia (5% oxygen in a glass jar). Control rats (sham operated and vehicle controls) were subjected to the same incision to isolate both common carotid arteries and to 14-min air (in the glass jar). Body temperature was kept at 37-37.5° C. using a heating light source during the surgical procedure and until the animals were fully recovered.

α-secretase = details: 10 pM; human fibroblasts; cited from earlier work
[4] = rTPA at 2 hours followed 6 hours later with bryostatin-1, vs rTPA alone

T1 sequence (Q05655 whole entry): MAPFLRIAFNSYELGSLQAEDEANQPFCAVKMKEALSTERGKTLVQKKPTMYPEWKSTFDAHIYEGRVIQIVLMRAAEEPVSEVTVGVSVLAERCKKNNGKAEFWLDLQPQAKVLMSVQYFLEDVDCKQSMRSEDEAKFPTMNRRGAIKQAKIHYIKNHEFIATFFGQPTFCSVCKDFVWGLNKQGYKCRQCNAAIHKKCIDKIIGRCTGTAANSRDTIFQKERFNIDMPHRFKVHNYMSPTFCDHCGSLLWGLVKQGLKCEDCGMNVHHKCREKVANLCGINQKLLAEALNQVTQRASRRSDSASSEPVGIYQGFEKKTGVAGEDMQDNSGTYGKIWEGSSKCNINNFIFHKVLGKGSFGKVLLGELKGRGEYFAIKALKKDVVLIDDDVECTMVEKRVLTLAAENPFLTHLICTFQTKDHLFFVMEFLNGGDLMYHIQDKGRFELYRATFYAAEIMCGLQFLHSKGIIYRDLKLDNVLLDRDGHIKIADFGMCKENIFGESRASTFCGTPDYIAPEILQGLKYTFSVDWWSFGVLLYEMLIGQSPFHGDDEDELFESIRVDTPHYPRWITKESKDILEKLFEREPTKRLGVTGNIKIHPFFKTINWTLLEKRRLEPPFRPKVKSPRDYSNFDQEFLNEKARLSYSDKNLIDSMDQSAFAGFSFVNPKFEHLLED

| Structure (SMILES) | effect on PKCδ (PKCδ) | effect on PKCγ (PKCγ) | time PKC remained elevated (PKC in primary neurons) | concentration of maximal effect, selective PKCε activation (PKCε) | brain edema ([1]; bryostatin-1 2 hours after stroke, rTPA 6 hours later, vs rTPA alone) | reduction of assayed hemoglobin in the cortex and striatum ([1]; bryostatin-1 2 hours after stroke, rTPA 6 hours later, vs rTPA at 6 hours alone) | mortality 24 hours later ([1]; rTPA 6 hours after the stroke, followed 2 hours later with bryostatin-1, rats) | uptake of Evans Blue dye in ipsilateral and contralateral cortices (BBB permeability) [1, 4] | uptake of NaF in ipsilateral and contralateral cortices [1, 4] | PKC downregulation following activation ([2]; 0.04 nM and 0.2 nM) | duration of PKC activation ([2]; 0.04 nM and 0.2 nM) | time of return of PKC to baseline ([2]; 0.04 nM and 0.2 nM) | PKC activation ([2]; 0.04 nM and 0.2 nM, H19-7/IGF-IR cells) | PKC activity at 8 hours (downregulation) ([2]; treated cells, 8 hours, data not shown) | water maze spatial learning, ischemic treated vs ischemic rats ([3]; bryostatin-1 20 μg/m^2 i.v. 2 doses/week, 10 doses, MCDA 1.0 mg/kg i.p. daily 5 weeks, start 24 hours after hypoxia) | water maze spatial learning, drug-only vs control rats ([3]; non-ischemic rats, same regimens) | water maze spatial learning, ischemic treated vs control rats ([3]; same regimens) | increase of initial rate of α-secretase activity (α-secretase) |
| --- | --- | --- | --- | --- | --- | --- | --- | --- | --- | --- | --- | --- | --- | --- | --- | --- | --- | --- |
| CCCCCC1CC1CC1CC1CCCCCCCC(=O)O (stereo not drawn) [BR-101, 2-[(2-pentylcyclopropyl)methyl]cyclopropaneoctanoic acid] | partially inhibited | activated | at least four | 100 nM | – | – | – | – | – | – | – | – | – | – | – | – | – | – |
| CCC/C=C/C=C/C(=O)O[C@H]1/C(=C/C(=O)OC)C[C@H]2C[C@H]([C@@H](C)O)OC(=O)C[C@H](O)C[C@@H]3C[C@H](OC(C)=O)C(C)(C)[C@](O)(C[C@@H]4C/C(=C/C(=O)OC)C[C@H](/C=C/C(C)(C)[C@]1(O)O2)O4)O3 [Bryostatin-1, bryostatin-1] | – | – | – | – | significantly reduced | 50% | 0% | significantly reduced | reduced | 20% | 30 min | ≤ 24 h | 2 fold | at or near the baseline | greatly improved the performance | no differences | did not differ statistically | 16 fold |
